{"source": "patent US20260242391A1", "about": "(priority 2023, published 2026)", "key": {"[1]": {"test": "in vitro", "conditions": "human"}, "[2]": {"system": "HL-60", "test": "HL-60 differentiation potency", "assay_type": "cell-based", "conditions": "Homo sapiens"}}, "data": [{"smiles": "C[C@H]1[C@@H](OCC2CCC(F)(F)CC2)O[C@@H]2O[C@@]3(C)CC[C@H]4[C@H](C)CC[C@@H]1[C@@]24OO3", "note": "[Compound 106, (3R,5aS,6R,8aS, 9R,10S,12R, 12aR)-10-((4,4-difluorocyclo-hexyl)methoxy)-3,6,9-trimethyldeca-hydro-12H-3,12-epoxy[1,2] dioxepino[4,3-i] isochromene]", "values": [{"measurement": "IC50", "setting": "[1]", "value": 0.1, "unit": "µM"}, {"measurement": "EC50", "setting": "[2]", "value": 20.4, "unit": "nM"}]}, {"smiles": "C[C@H]1[C@@H](Oc2ccc(-c3ccc(C(=O)O)cc3)cc2)O[C@@H]2O[C@@]3(C)CC[C@H]4[C@H](C)CC[C@@H]1[C@@]24OO3", "note": "[Compound 107, 4′-(((3R,5aS,6R,8aS, 9R,10S,12R, 12aR)-3,6,9-trimethyldeca-hydro-12H-3,12-epoxy[1,2]dioxepino[4,3-i]isochromen-10-yl)oxy)-[1,1′-biphenyl]-4-carboxylic acid]", "values": [{"measurement": "IC50", "setting": "[1]", "value": 0.04, "unit": "µM"}, {"measurement": "EC50", "setting": "[2]", "value": 23.5, "unit": "nM"}]}, {"smiles": "C[C@H]1[C@@H](OCc2ccc(C(=O)O)cc2Cl)O[C@@H]2O[C@@]3(C)CC[C@H]4[C@H](C)CC[C@@H]1[C@@]24OO3", "note": "[Compound 119, 3-chloro-4-((((3R,5aS,6R, 8aS,9R,10S,12R, 12aR)-3,6,9-trimethyldeca-hydro-12H-3,12-epoxy[1,2]dioxepino[4,3-i]isochromen-10-yl)oxy)methyl) benzoic acid]", "values": [{"measurement": "IC50", "setting": "[1]", "value": "> 20", "unit": "µM"}, {"measurement": "EC50", "setting": "[2]", "value": 110, "unit": "nM"}]}, {"smiles": "C[C@H]1[C@@H](Oc2ccc(C3(C(=O)O)CC3)cc2)O[C@@H]2O[C@@]3(C)CC[C@H]4[C@H](C)CC[C@@H]1[C@@]24OO3", "note": "[Compound 124, 1-(4-(((3R,5aS,6R,8aS, 9R,10S,12R, 12aR)-3,6,9-trimethyldeca-hydro-12H-3,12-epoxy[1,2]dioxepino[4,3-i]isochromen-10-yl)oxy)phenyl) cyclopropane-1-carboxylic acid]", "values": [{"measurement": "IC50", "setting": "[1]", "value": 2.45, "unit": "µM"}, {"measurement": "EC50", "setting": "[2]", "value": 28.8, "unit": "nM"}]}, {"smiles": "C[C@H]1[C@@H](Oc2ccc(C(C)(C)C(=O)O)cc2)O[C@@H]2O[C@@]3(C)CC[C@H]4[C@H](C)CC[C@@H]1[C@@]24OO3", "note": "[Compound 126, 2-methyl-2-(4-(((3R,5aS,6R,8aS, 9R,10S,12R, 12aR)-3,6,9-trimethyldeca-hydro-12H-3,12-epoxy[1,2]dioxepino[4,3-i]isochromen-10-yl)oxy)phenyl) propanoic acid]", "values": [{"measurement": "IC50", "setting": "[1]", "value": 5.5, "unit": "µM"}, {"measurement": "EC50", "setting": "[2]", "value": 15.6, "unit": "nM"}]}, {"smiles": "C[C@H]1[C@@H](OCC2(C(=O)O)CCC2)O[C@@H]2O[C@@]3(C)CC[C@H]4[C@H](C)CC[C@@H]1[C@@]24OO3", "note": "[Compound 127, 1-((((3R,5aS,6R, 8aS,9R,10S,12R, 12aR)-3,6,9-trimethyldeca-hydro-12H-3,12-epoxy[1,2]dioxepino[4,3-i]isochromen-10-yl)oxy)methyl) cyclobutane-1-carboxylic acid]", "values": [{"measurement": "IC50", "setting": "[1]", "value": "> 20", "unit": "µM"}, {"measurement": "EC50", "setting": "[2]", "value": 8880, "unit": "nM"}]}, {"smiles": "C[C@H]1[C@H](Oc2ccc(C(=O)C(=O)O)cc2)O[C@@H]2O[C@@]3(C)CC[C@H]4[C@H](C)CC[C@@H]1[C@@]24OO3", "note": "[Compound 129, 2-oxo-2-(4-(((3R,5aS,6R,8aS, 9R,10R,12R, 12aR)-3,6,9-trimethyldeca-hydro-12H-3,12-epoxy[1,2]dioxepino[4,3-i]isochromen-10-yl)oxy)phenyl) acetic acid]", "values": [{"measurement": "IC50", "setting": "[1]", "value": 10.5, "unit": "µM"}, {"measurement": "EC50", "setting": "[2]", "value": 3380, "unit": "nM"}]}, {"smiles": "C[C@H]1[C@@H](O[C@H]2CC[C@@H](CC(=O)O)C2)O[C@@H]2O[C@@]3(C)CC[C@H]4[C@H](C)CC[C@@H]1[C@@]24OO3", "note": "[Compound 130, 2-((1R,3S)-3-(((3R,5aS,6R,8aS, 9R,10S,12R, 12aR)-3,6,9-trimethyldeca-hydro-12H-3,12-epoxy[1,2]dioxepino[4,3-i]isochromen-10-yl)oxy)cyclo-pentyl)acetic acid]", "values": [{"measurement": "IC50", "setting": "[1]", "value": "> 20", "unit": "µM"}, {"measurement": "EC50", "setting": "[2]", "value": 241, "unit": "nM"}]}, {"smiles": "C[C@H]1[C@@H](OC(C)(C)[C@H]2CC[C@@H](C(=O)O)CC2)O[C@@H]2O[C@@]3(C)CC[C@H]4[C@H](C)CC[C@@H]1[C@@]24OO3", "note": "[Compound 131, (1R,4s)-4-(2-(((3R,5aS,6R,8aS, 9R,10S,12R, 12aR)-3,6,9-trimethyldeca-hydro-12H-3,12-epoxy[1,2]dioxepino[4,3-i]isochromen-10-yl)oxy)propan-2-yl)cyclohexane-1-carboxylic acid]", "values": [{"measurement": "IC50", "setting": "[1]", "value": 16.5, "unit": "µM"}, {"measurement": "EC50", "setting": "[2]", "value": 159, "unit": "nM"}]}, {"smiles": "C[C@H]1[C@@H](Oc2ccc(CC(=O)OC(C)(C)C)cc2)O[C@@H]2O[C@@]3(C)CC[C@H]4[C@H](C)CC[C@@H]1[C@@]24OO3", "note": "[Compound 132, tert-butyl 2-(4-(((3R,5aS,6R,8aS, 9R,10S,12R, 12aR)-3,6,9-trimethyldeca-hydro-12H-3,12-epoxy[1,2]dioxepino[4,3-i]isochromen-10-yl)oxy)phenyl) acetate]", "values": [{"measurement": "IC50", "setting": "[1]", "value": 0.01, "unit": "µM"}, {"measurement": "EC50", "setting": "[2]", "value": 12.4, "unit": "nM"}]}, {"smiles": "C[C@H]1[C@@H](Oc2ccc(C(=O)N[C@H]3CC[C@@H](C(=O)O)C3)cc2)O[C@@H]2O[C@@]3(C)CC[C@H]4[C@H](C)CC[C@@H]1[C@@]24OO3", "note": "[Compound 134, (1R,3S)-3-(4-(((3R,5aS,6R,8aS, 9R,10S,12R, 12aR)-3,6,9-trimethyldeca-hydro-12H-3,12-epoxy[1,2]dioxepino[4,3-i]isochromen-10-yl)oxy)benzamido)cyclo-pentane-1-carboxylic acid]", "values": [{"measurement": "IC50", "setting": "[1]", "value": 8, "unit": "µM"}, {"measurement": "EC50", "setting": "[2]", "value": 24.4, "unit": "nM"}]}, {"smiles": "C[C@H]1[C@@H](OC[C@H]2CCC[C@@H](C(=O)O)C2)O[C@@H]2O[C@@]3(C)CC[C@H]4[C@H](C)CC[C@@H]1[C@@]24OO3", "note": "[Compound 135, (1R,3S)-3-((((3R,5aS,6R, 8aS,9R,10S,12R, 12aR)-3,6,9-trimethyldeca-hydro-12H-3,12-epoxy[1,2]dioxepino[4,3-i]isochromen-10-yl)oxy)methyl) cyclohexane-1-carboxylic acid]", "values": [{"measurement": "IC50", "setting": "[1]", "value": "> 20", "unit": "µM"}, {"measurement": "EC50", "setting": "[2]", "value": 225, "unit": "nM"}]}, {"smiles": "C[C@H]1[C@@H](OC[C@H]2CC[C@@H](C(=O)O)C2)O[C@@H]2O[C@@]3(C)CC[C@H]4[C@H](C)CC[C@@H]1[C@@]24OO3", "note": "[Compound 136, (1R,3S)-3-((((3R,5aS,6R, 8aS,9R,10S,12R, 12aR)-3,6,9-trimethyldeca-hydro-12H-3,12-epoxy[1,2]dioxepino[4,3-i]isochromen-10-yl)oxy)methyl) cyclopentane-1-carboxylic acid]", "values": [{"measurement": "IC50", "setting": "[1]", "value": "> 20", "unit": "µM"}, {"measurement": "EC50", "setting": "[2]", "value": 197, "unit": "nM"}]}, {"smiles": "C[C@H]1[C@H](OCc2c(F)cc(C(=O)O)cc2F)O[C@@H]2O[C@@]3(C)CC[C@H]4[C@H](C)CC[C@@H]1[C@@]24OO3", "note": "[Compound 137, 3,5-difluoro-4-((((3R,5aS,6R,8aS, 9R,10R,12R, 12aR)-3,6,9-trimethyldeca-hydro-12H-3,12-epoxy[1,2]dioxepino[4,3-i]isochromen-10-yl)oxy)methyl) benzoic acid]", "values": [{"measurement": "IC50", "setting": "[1]", "value": "> 20", "unit": "µM"}, {"measurement": "EC50", "setting": "[2]", "value": 86.8, "unit": "nM"}]}, {"smiles": "C[C@H]1[C@@H](OC[C@@H]2CCC[C@H](C(=O)O)C2)O[C@@H]2O[C@@]3(C)CC[C@H]4[C@H](C)CC[C@@H]1[C@@]24OO3", "note": "[Compound 138, (1S,3R)-3-((((3R,5aS,6R, 8aS,9R,10S,12R, 12aR)-3,6,9-trimethyldeca-hydro-12H-3,12-epoxy[1,2]dioxepino[4,3-i]isochromen-10-yl)oxy)methyl) cyclohexane-1-carboxylic acid]", "values": [{"measurement": "IC50", "setting": "[1]", "value": "> 20", "unit": "µM"}, {"measurement": "EC50", "setting": "[2]", "value": 120, "unit": "nM"}]}, {"smiles": "C[C@H]1[C@H](Oc2ccc(C#CC(=O)O)cc2)O[C@@H]2O[C@@]3(C)CC[C@H]4[C@H](C)CC[C@@H]1[C@@]24OO3", "note": "[Compound 139, 3-(4-(((3R,5aS,6R,8aS, 9R,10R,12R, 12aR)-3,6,9-trimethyldeca-hydro-12H-3,12-epoxy[1,2]dioxepino[4,3-i]isochromen-10-yl)oxy)phenyl) propiolic acid]", "values": [{"measurement": "IC50", "setting": "[1]", "value": 3, "unit": "µM"}, {"measurement": "EC50", "setting": "[2]", "value": 30.9, "unit": "nM"}]}, {"smiles": "C[C@H]1[C@@H](OC[C@]2(F)CC[C@H](C(=O)O)CC2)O[C@@H]2O[C@@]3(C)CC[C@H]4[C@H](C)CC[C@@H]1[C@@]24OO3", "note": "[Compound 140, (1S,4r)-4-fluoro-4-((((3R,5aS,6R,8aS, 9R,10S,12R, 12aR)-3,6,9-trimethyldeca-hydro-12H-3,12-epoxy[1,2]dioxepino[4,3-i]isochromen-10-yl)oxy)methyl) cyclohexane-1-carboxylic acid]", "values": [{"measurement": "IC50", "setting": "[1]", "value": 19, "unit": "µM"}, {"measurement": "EC50", "setting": "[2]", "value": 314, "unit": "nM"}]}, {"smiles": "C[C@H]1[C@@H](OCc2cc(C(=O)O)cc(C(=O)O)c2)O[C@@H]2O[C@@]3(C)CC[C@H]4[C@H](C)CC[C@@H]1[C@@]24OO3", "note": "[Compound 141, 5-((((3R,5aS,6R,8aS, 9R,10S,12R, 12aR)-3,6,9-trimethyldeca-hydro-12H-3,12-epoxy[1,2]dioxepino[4,3-i]isochromen-10-yl)oxy)methyl) isophthalic acid]", "values": [{"measurement": "IC50", "setting": "[1]", "value": "> 20", "unit": "µM"}, {"measurement": "EC50", "setting": "[2]", "value": "> 20000", "unit": "nM"}]}, {"smiles": "C[C@H]1[C@@H](Oc2ccc(C(=O)NCC(=O)O)cc2)O[C@@H]2O[C@@]3(C)CC[C@H]4[C@H](C)CC[C@@H]1[C@@]24OO3", "note": "[Compound 142, (4-(((3R,5aS,6R,8aS, 9R,10S,12R, 12aR)-3,6,9-trimethyldeca-hydro-12H-3,12-epoxy[1,2]dioxepino[4,3-i]isochromen-10-yl)oxy)benzoyl) glycine]", "values": [{"measurement": "IC50", "setting": "[1]", "value": "> 20", "unit": "µM"}, {"measurement": "EC50", "setting": "[2]", "value": 1820, "unit": "nM"}]}, {"smiles": "C[C@H]1[C@@H](OC[C@H]2CC[C@@H](C(=O)NC3CC3)CC2)O[C@@H]2O[C@@]3(C)CC[C@H]4[C@H](C)CC[C@@H]1[C@@]24OO3", "note": "[Compound 143, (1R,4s)-N-cyclopropyl-4-((((3R,5aS,6R,8aS, 9R,10S,12R, 12aR)-3,6,9-trimethyldeca-hydro-12H-3,12-epoxy[1,2]dioxepino[4,3-i]isochromen-10-yl)oxy)methyl) cyclohexane-1-carboxamide]", "values": [{"measurement": "IC50", "setting": "[1]", "value": 1, "unit": "µM"}, {"measurement": "EC50", "setting": "[2]", "value": 72.6, "unit": "nM"}]}, {"smiles": "C[C@H]1[C@@H](OC[C@H]2CC[C@@H](C(=O)O)N2C)O[C@@H]2O[C@@]3(C)CC[C@H]4[C@H](C)CC[C@@H]1[C@@]24OO3", "note": "[Compound 144, (2S,5R)-1-methyl-5-((((3R,5aS,6R,8aS, 9R,10S,12R, 12aR)-3,6,9-trimethyldeca-hydro-12H-3,12-epoxy[1,2]dioxepino[4,3-i]isochromen-10-yl)oxy)methyl) pyrrolidine-2-carboxylic acid]", "values": [{"measurement": "IC50", "setting": "[1]", "value": 14.4, "unit": "µM"}, {"measurement": "EC50", "setting": "[2]", "value": 3350, "unit": "nM"}]}, {"smiles": "C[C@H]1[C@@H](OC(=O)Cn2ccc(C(F)(F)F)n2)O[C@@H]2O[C@@]3(C)CC[C@H]4[C@H](C)CC[C@@H]1[C@@]24OO3", "note": "[Compound 145, (3R,5aS,6R,8aS, 9R,10R,12R, 12aR)-3,6,9-trimethyldeca-hydro-12H-3,12-epoxy[1,2] dioxepino[4,3-i] isochromen-10-yl 2-(3-(trifluoro-methyl)-1H-pyrazol-1-yl)acetate]", "values": [{"measurement": "IC50", "setting": "[1]", "value": 0.11, "unit": "µM"}, {"measurement": "EC50", "setting": "[2]", "value": 73.2, "unit": "nM"}]}]}
